# Assays:
# [1] = Exudation of active agents from gel specimens to filter paper discs, quantified by UV, MS, GC and/or HPLC after extraction; assay type: physicochemical; settings: for Active Agent Transferred from Gel to Filters: 37° C., 0.40 psi; for Total Active Agent Exuded from Gel: cumulative
# Procedure: Sample filter paper discs were placed in contact with gel specimens of same diameter under constant low pressure (0.40 psi. (2.8 Mpa)) at 37° C. Multiple time-controlled exposures of the filter paper to the gel were preformed in succession to same side of gel. Quantification of active agent transferred to the filter paper discs was determined by UV, MS, GC and or HPLC analysis after extraction of active agent from the filter paper. Exudation rates was expressed as μg/unit time per unit surface area.
# This compound was then divided into three aliquots' of approximately 10 grams each and poured into a 2.625″ diameter aluminum petri dish and allowed to cool to create individual gel samle discs. Subsequently, absorbent cellulose filter blotter paper was die cut to enough 2.625″ diameter discs to be employed as a wicking media for repeated exposure in direct contact with the gel compound under specific conditions as follows.
# (§1) Exposure Conditions: 37-40 deg. C., Sample filter paper discs in contact with gel specimens of same diameter were stacked in […]. aluminum petri dishes, gel specimen diameter 2.625″×0.125″ thick, filter paper disc diameter 2.625″ with another petri dish and a 1 kg dead weight on top of stack. Pressure calculated at ˜0.407 psi. (2.8 Mpa) constant. Two replicates per test condition. Repeat exposures at 3 hours then repeat three exposures of 18 hours each, changing discs but keeping same gel specimen and same side of each gel specimen in contact with each successive filter paper disc sample.
# The filter paper disc specimens aa through kk were then sent to an analytical laboratory for HPLC and GC analysis along with a small sample of each individual raw ingredient so that the HPLC and GC equipment could be calibrated for the protocol being employed by the lab. This calibration allowed for determining the maximum recoverable (measurable) amount of each ingredient that could be measured using these techniques and would later be used to correct the data. The analytical laboratory then detected and measured the amount of each of the added active agents that was flushed out of the filter paper discs using wet chemistry techniques known to those skilled in the art.
# The analytical data was interpreted, and the amounts of each ingredient which was exuded into each filter paper blotter disc specimen, and subsequently extracted using wet chemistry, were then entered into a data analysis spreadsheet and adjusted based on the Analytical Recovery Rate to determine actual concentration of each ingredient extracted.
# [2] = Total weight of exudate (oil) absorbed by filter paper blotter discs and theoretical amount of each ingredient exuded; assay type: physicochemical
# Procedure: as §1
# Data was calculated to determine the total weight of exudate absorbed by each individual sample filter paper blotter disc test specimen. Calculations were then performed based upon the ratios of ingredients in the gel disc formula to determine the theoretical amount of each ingredient that could have been exuded from the oil if the oil contained the same ratio of ingredients as contained in the control oil sample and in the gel.
substance,measurement,setting,value
Synthetic Menthol [S-Menthol],Active Agent Transferred from Gel to Filters,"[1]; Gel Specimen Number 1, 1 h filter exposure, time 0-1 h",3578 μg per filter
same,Active Agent Transferred from Gel to Filters,"[1]; Gel Specimen Number 1, 3 h filter exposure, time 1-4 h",4193 μg per filter
same,Active Agent Transferred from Gel to Filters,"[1]; Gel Specimen Number 1, 18 h filter exposure, time 4-22 h",8952 μg per filter
same,Active Agent Transferred from Gel to Filters,"[1]; Gel Specimen Number 1, 18 h filter exposure, time 22-40 h",8566 μg per filter
same,Active Agent Transferred from Gel to Filters,"[1]; Gel Specimen Number 1, 18 h filter exposure, time 40-58 h",7193 μg per filter
same,Total Active Agent Exuded from Gel,"[1]; Gel Specimen Number 1, Time 1 h",3578 µg
same,Total Active Agent Exuded from Gel,"[1]; Gel Specimen Number 1, Time 4 h",7771 µg
same,Total Active Agent Exuded from Gel,"[1]; Gel Specimen Number 1, Time 22 h",16723 µg
same,Total Active Agent Exuded from Gel,"[1]; Gel Specimen Number 1, Time 40 h",25289 µg
same,Total Active Agent Exuded from Gel,"[1]; Gel Specimen Number 1, Time 58 h",32482 µg
same,Active Agent Transferred from Gel to Filters,"[1]; Gel Specimen Number 2, 1 h filter exposure, time 0-1 h",4855 μg per filter
same,Active Agent Transferred from Gel to Filters,"[1]; Gel Specimen Number 2, 3 h filter exposure, time 1-4 h",5373 μg per filter
same,Active Agent Transferred from Gel to Filters,"[1]; Gel Specimen Number 2, 18 h filter exposure, time 4-22 h",8916 μg per filter
same,Active Agent Transferred from Gel to Filters,"[1]; Gel Specimen Number 2, 18 h filter exposure, time 22-40 h",7446 μg per filter
same,Active Agent Transferred from Gel to Filters,"[1]; Gel Specimen Number 2, 18 h filter exposure, time 40-58 h",7108 μg per filter
same,Total Active Agent Exuded from Gel,"[1]; Gel Specimen Number 2, Time 1 h",4855 µg
same,Total Active Agent Exuded from Gel,"[1]; Gel Specimen Number 2, Time 4 h",10229 µg
same,Total Active Agent Exuded from Gel,"[1]; Gel Specimen Number 2, Time 22 h",19145 µg
same,Total Active Agent Exuded from Gel,"[1]; Gel Specimen Number 2, Time 40 h",26590 µg
same,Total Active Agent Exuded from Gel,"[1]; Gel Specimen Number 2, Time 58 h",33699 µg
same,Quantitative Analysis - Islechem u-gram extraction,"[1]; Specimen aa, Hours 1, Cummulative Hours 1",2970 u-gram
same,Quantitative Analysis - Islechem u-gram extraction,"[1]; Specimen bb, Hours 1, Cummulative Hours 1",4030 u-gram
same,Quantitative Analysis - Islechem u-gram extraction,"[1]; Specimen cc, Hours 3, Cummulative Hours 4",3480 u-gram
same,Quantitative Analysis - Islechem u-gram extraction,"[1]; Specimen dd, Hours 3, Cummulative Hours 4",4460 u-gram
same,Quantitative Analysis - Islechem u-gram extraction,"[1]; Specimen ee, Hours 18, Cummulative Hours 22",7430 u-gram
same,Quantitative Analysis - Islechem u-gram extraction,"[1]; Specimen ff, Hours 18, Cummulative Hours 22",7400 u-gram
same,Quantitative Analysis - Islechem u-gram extraction,"[1]; Specimen gg, Hours 18, Cummulative Hours 40",7110 u-gram
same,Quantitative Analysis - Islechem u-gram extraction,"[1]; Specimen hh, Hours 18, Cummulative Hours 40",6180 u-gram
same,Quantitative Analysis - Islechem u-gram extraction,"[1]; Specimen ii, Hours 18, Cummulative Hours 58",5970 u-gram
same,Quantitative Analysis - Islechem u-gram extraction,"[1]; Specimen kk, Hours 18, Cummulative Hours 58",5900 u-gram
same,Estimated grams of ingredient exuded (theoretical amount from ratios of ingredients in the gel disc formula),"[2]; Sample aa, Test Disc 1, Exposed 1 hours",0.0022 grams
same,Estimated grams of ingredient exuded (theoretical amount from ratios of ingredients in the gel disc formula),"[2]; Sample bb, Test Disc 1 Replicate, Exposed 1 hours",0.0031 grams
same,Estimated grams of ingredient exuded (theoretical amount from ratios of ingredients in the gel disc formula),"[2]; Sample cc, Test Disc 2, Exposed 3 hours",0.0024 grams
same,Estimated grams of ingredient exuded (theoretical amount from ratios of ingredients in the gel disc formula),"[2]; Sample dd, Test Disc 2 Replicate, Exposed 3 hours",0.0035 grams
same,Estimated grams of ingredient exuded (theoretical amount from ratios of ingredients in the gel disc formula),"[2]; Sample ee, Test Disc 3, Exposed 18 hours",0.0062 grams
same,Estimated grams of ingredient exuded (theoretical amount from ratios of ingredients in the gel disc formula),"[2]; Sample ff, Test Disc 3 Replicate, Exposed 18 hours",0.0062 grams
same,Estimated grams of ingredient exuded (theoretical amount from ratios of ingredients in the gel disc formula),"[2]; Sample gg, Test Disc 4, Exposed 18 hours",0.0064 grams
same,Estimated grams of ingredient exuded (theoretical amount from ratios of ingredients in the gel disc formula),"[2]; Sample hh, Test Disc 4 Replicate, Exposed 18 hours",0.0057 grams
same,Estimated grams of ingredient exuded (theoretical amount from ratios of ingredients in the gel disc formula),"[2]; Sample ii, Test Disc 5, Exposed 18 hours",0.0051 grams
same,Estimated grams of ingredient exuded (theoretical amount from ratios of ingredients in the gel disc formula),"[2]; Sample kk, Test Disc 5 Replicate, Exposed 18 hours",0.0051 grams
